According to paper PMC4459817, “Vasculotide reduces endothelial permeability and tumor cell extravasation in the absence of binding to or agonistic activation of Tie2” (EMBO Molecular Medicine, 2015):

Tested on: Tie2 in HUVECs
Assay: in vitro Tie2 phosphorylation (immunoprecipitation/immunoblot), HUVEC
Type: cell-based, human
Settings: Ang1 15–400 ng/mL (0.05–1.43 nM), VT 5–100 ng/mL (0.36–7.1 nM), 10, 15 or 45 min, with or without starvation
Description: Figure 7 In vitro Vasculotide vs. Ang1 stimulations: effects on Tie2 receptor phosphorylation in primary endothelial cells—HUVECs (A-E) and HMVEC-DBls (F) • A–F Primary human umbilical vein endothelial cells (HUVECs) or primary human dermal microvascular endothelial cells (HMVEC-DBls) were stimulated at 80% confluency with Vasculotide (treatment), Ang1 (positive control; ligand of Tie2), PBS (vehicle control), or VEGF (negative control; non-ligand of Tie2). Tie2 was immunoprecipitated from cell lysates and immunoblotted for total Tie2 or phosphotyrosine. […] Source data are available online for this figure. […]
Nodule areas were then […]
unit converted (to μm2) and normalized to total lung section area (including air spaces) using ROI measurements from ImageJ software (NIH).
7. Histological assessment of primary tumor viability and hypoxia
5-μm thick sections of PFA-fixed paraffin-embedded mammary fat pad tumors were subjected to: (i) standard hematoxylin and eosin (H&E) staining to visualize viable vs. necrotic regions; or (ii) standard IHC staining with a goat anti-human carbonic anhydrase IX (CAIX or CA9) antibody (R&D Systems AF2188, 1:80 dilution) plus hematoxylin counterstain to visualize hypoxic regions. […]
IHC staining for CAIX further marks a hypoxic band at the edge of the viability rim bordering the necrotic core – the thickness of this hypoxic edge was averaged over 12 measurements spaced 30o apart (see Fig. 5E).
8. Western immunoblotting for total or phosphorylated Tie2
Cultured ECs and TCs were lysed in RIPA lysis buffer as previously described (Bogdanovic et al, 2006).
Lung/ liver/ kidney tissues, which had been snap-frozen in liquid nitrogen once harvested from mice, were homogenized in RIPA lysis buffer (50 mM Tris-HCl pH 7.5, 150 mM NaCl, 1% Igepal, 0.5% sodium deoxycholate, 0.1% SDS, 1 mM Na3VO4 and protease inhibitors) at 4 °C. […]
Semi-quantitative densitometry analysis of immunoblots was performed using the ChemiGenius2 bioimaging system and GeneSnap/GeneTools software (Syngene). […]

| Molecule | Tie2 phosphorylation | Tie2 phosphorylation (listed as VT) |
| --- | --- | --- |
| CHHHRHSF [Vasculotide, 4-armed maleimide-functionalized polyethylene glycol (PEG) backbone to link together four cysteine-capped T7 peptides, that is, CHHHRHSF] | did not lead to increases in the pTie2/Tie2 ratio | did not lead to any appreciable induction of Tie2 phosphorylation |
| recombinant human Ang1 (rhAng1) (ligand, UniProt Q15389 16-498, looked up, angiopoietin-1, human, recombinant; also called angiopoietin-1; source: bought: R&D Systems (named for the Boyden chamber experiments)) HIGCSNQRRSPENSGRRYNRIQHGQCAYTFILPEHDGNCRESTTDQYNTNALQRDAPHVEPDFSSQKLQHLEHVMENYTQWLQKLENYIVENMKSEMAQIQQNAVQNHTATMLEIGTSLLSQTAEQTRKLTDVETQVLNQTSRLEIQLLENSLSTYKLEKQLLQQTNEILKIHEKNSLLEHKILEMEGKHKEELDTLKEEKENLQGLVTRQTYIIQELEKQLNRATTNNSVLQKQQLELMDTVHNLVNLCTKEGVLLKGGKREEEKPFRDCADVYQAGFNKSGIYTIYINNMPEPKKVFCNMDVNGGGWTVIQHREDGSLDFQRGWKEYKMGFGNPSGEYWLGNEFIFAITSQRQYMLRIELMDWEGNRAYSQYDRFHIGNEKQNYRLYLKGHTGTAGKQSSLILHGADFSTKDADNDNCMCKCALMLTGGWWFDACGPSNLNGMFYTAGQNHGKLNGIKWHYFKGPSYSLRSTTMMIRPLDF | strongly and consistently activated Tie2 phosphorylation |  |
